Laboratory results reported in patent US20130317096A1, “SYNERGISTIC INTERACTION OF AT LEAST ONE VITAMIN E COMPONENT AND TYROSINASE INHIBITORS FOR DERMATOLOGICAL APPLICATIONS” (Davos Life Science Pte Ltd, priority 2010, published 2013).
“Also recorded” adds a separate entry of the source.

How the values were obtained:
Format in all cases: cell-based, mouse
B16 melanoma cells [1] = assay: MTT cell viability assay; settings: 24 hrs of treatment; for B16 melanoma cell viability / proliferation rate: increasing dosages
Procedure: B16 mouse melanoma cells were purchased from (ATCC, Manassas, Va., USA).
The base medium for the cell line was Dulbecco's modified Eagle's medium (DMEM). To make the complete growth medium, fetal bovine serum (final concentration, 10%) was added to the base medium. Tocotrienol (T3) and tocopherol (TP) isomers and the palm tocotrienol-rich fraction (TRF) were purified from a palm fatty acid distillate (PFAD) using molecular distillation and Novasep® equipment (Novasep, Pompey, France). The extraction facility is located in Tuas, Singapore. The PFAD feed was purchased from Kuala Lumpur Kepong Berhad (Kuala Lumpur, Malaysia). The purity of the vitamin E isomers was verified by HPLC and gas chromatography (GC) percentage peak area.
For the cell viability study, 5×10^3 cells re-suspended in 100 μl of medium were plated into each well of a 96-well plate. The cells were then treated with different concentrations of the vitamin-E isomers for 24 hrs. After the treatment, 20 μl of MTT solution (1 mg/ml in PBS; Sigma-Aldrich, St. Louis, Mo., USA) was added to each well and the cells were incubated at 37° C. for 2 hrs. The formazan crystals were then re-suspended in 200 μl of DMSO and the intensity at 595 nm was measured.

[2] = system: cleaved caspase 3 and PARP; assay: Western blot of apoptotic molecules; settings: B16 melanoma cells
tyrosinase mRNA = assay: Reverse transcriptase PCR of tyrosinase mRNA; settings: B16 melanoma cells
Text: Total RNA was isolated using Trizol reagent according to the manufacturer's protocol (Invitrogen, Carlsbad, Calif., USA). cDNA was synthesized using the SuperScript First Strand Synthesis System (Invitrogen, Carlsbad, Calif., USA) and was then amplified by PCR with tyrosinase-specific primers (forward primer, tyrosinase-S,5′-[…]-3′ [−2236/−2217] (SEQ ID NO: 1) and reverse primer, tyrosinase-AS,5′-[…]-3′ [+63/+42]) (SEQ ID NO: 2) and GAPDH specific primers: 5′ to 3′F […] (SEQ ID NO: 3); 5′ to 3′R […] (SEQ ID NO: 4). The PCR cycling protocol was as follows: 30 cycles for 10 min at 95° C., 30 sec at 95° C., 30 sec at 55° C., 1 min at 72° C., and 10 min at 72° C. Glyceraldehyde 3-phosphate dehydrogenase (GAPDH) was amplified as an internal control. The PCR products were electrophoresed on a 2% agarose gel and analyzed using a gel documentation system.

B16 melanoma cells [3] = assay: Anti-pigmentation effect, photographs of cell pellets
Procedure: At different time points, cells were harvested using trysin-EDTA and the cell pellets were washed once with phosphate-buffered saline (PBS). A sample amount from each compound treatment group was divided into two equal parts. These cell pellets were then stored at −80° C. prior to the measurement of the tyrosinase activity and melanin content.

tyrosinase [4] = assay: Western blot of tyrosinase protein expression in B16 melanoma cells; settings: for time response of tyrosinase suppression: single dose, 24 hrs versus 48 hrs
Procedure: Carcinogenesis, 2006, 27, 2180-9. Briefly, cell lysates were prepared by suspending cell pellets in lysis buffer (50 mmol/l Tris-HCl [pH 8.0], 150 mmol/l NaCl, 1% NP40, 0.5% deoxycholate, 0.1% SDS, […], 1 μg/ml leupeptin, and 1 mmol/l phenylmethylsulfonyl fluoride). The protein concentration was measured using the DC Protein Assay kit (Bio-Rad, Hercules, Calif., USA). An equal amount of protein (30 μg) was loaded onto a 10% SDS polyacrylamide gel for electrophoresis, then transferred onto a polyvinylidene difluoride membrane (Amersham, Piscataway, N.J., USA). The membrane was then incubated with primary antibodies for 1 hr at room temperature against tyrosinase, Id1, and beta-actin (Santa Cruz Biotechnology, Inc., Santa Cruz, Calif., USA). After incubation with appropriate secondary antibodies, signals were visualized by an ECL Western blotting system (Amersham). The expression of β-actin was assessed as an internal loading control for total cell lysate.

tyrosinase [5] = assay: UV-induced tyrosinase protein expression, Western blot; settings: UV 1, 10, 30 and 60 minutes
Procedure: The UVB source for cell irradiation was provided using a UVP UVM-57 handheld UV lamp (UVP Inc, Upland, Calif., USA).
Briefly, cell lysates were prepared by suspending cell pellets in lysis buffer (50 mmol/l Tris-HCl [pH 8.0], 150 mmol/l NaCl, 1% NP40, 0.5% deoxycholate, 0.1% SDS, 1 mg/ml aprotinin, 1 μg/ml leupeptin, and 1 mmol/l phenylmethylsulfonyl fluoride). The protein concentration was measured using the DC Protein Assay kit (Bio-Rad, Hercules, Calif., USA). An equal amount of protein (30 μg) was loaded onto a 10% SDS polyacrylamide gel for electrophoresis, then transferred onto a polyvinylidene difluoride membrane (Amersham, Piscataway, N.J., USA). The membrane was then incubated with primary antibodies for 1 hr at room temperature against tyrosinase, Id1, and beta-actin (Santa Cruz Biotechnology, Inc., Santa Cruz, Calif., USA). After incubation with appropriate secondary antibodies, signals were visualized by an ECL Western blotting system (Amersham). The expression of β-actin was assessed as an internal loading control for total cell lysate.

[6] = 0.05% (3.5 mM kojic acid, 4.5 mM sodium lactate)

Compound | B16 melanoma cell viability / proliferation rate (B16 melanoma cells [1]) | induction of apoptotic molecules (cleaved caspase 3 and PARP) [2] | tyrosinase mRNA (tyrosinase mRNA) | cell pellet pigmentation (B16 melanoma cells [3]; 20 μM) | tyrosinase protein expression (tyrosinase [4]; 20 μM treatment) | also measured
O=c1cc(CO)occ1O [kojic acid] | inhibit B16 melanoma cell viability at high concentrations | induced cellular apoptosis; also recorded: induced critical apoptotic molecules in a dose-dependent manner | not affected; also recorded: No change of tyrosinase mRNA | comparable pigmentation level to controls | – | concentration with anti-proliferation effect (B16 melanoma cells [1]): ≥ 0.5%; cell pellet pigmentation (B16 melanoma cells [3]; [6]): lighter cell pigmentation
CC(O)C(=O)[O-].[Na+] (stereo not drawn) [sodium lactate, reference compound] | – | – | not affected; also recorded: No change of tyrosinase mRNA | comparable pigmentation level to controls | did not result in observable down-regulation; also recorded: does not suppress tyrosinase protein expression | tyrosinase protein suppression, dose response and relative potency (tyrosinase [4]; increasing dosage): observed only at much higher concentration; time response of tyrosinase suppression (tyrosinase [4]): opposite observation; also recorded: diminished after 48 hrs; tyrosinase protein expression (tyrosinase [4]; up to 100 μM): does not suppress tyrosinase protein expression; cell pellet pigmentation (B16 melanoma cells [3]; [6]): Lighter pigmentation
Cc1c(C)c2c(c(C)c1O)CC[C@@](C)(CCC[C@H](C)CCC[C@H](C)CCCC(C)C)O2 [α-tocopherol, 5,7,8-trimethyltocol] | – | – | No change of tyrosinase mRNA | comparable pigmentation level to controls | – | tyrosinase mRNA (tyrosinase mRNA; listed as αTP): not affected; time response of tyrosinase suppression (tyrosinase [4]): no impact on the suppression of tyrosinase; tyrosinase protein expression of B16 cells exposed to UV (tyrosinase [5]): not able to block UVB-induced activation of tyrosinase at all time points tested
CC(C)=CCC/C(C)=C/CC/C(C)=C/CC[C@]1(C)CCc2c(C)c(O)cc(C)c2O1 [β-tocotrienol, 5,8-dimethyltocotrienol] | inhibited the proliferation rate of B16 melanoma cells in a dose-dependent fashion; also recorded: inhibit B16 melanoma cell viability at high concentrations | induced critical apoptotic molecules in a dose-dependent manner | – | – | – | induction of apoptotic molecules (cleaved caspase 3 and PARP) ([2]; listed as β-T3): induced cellular apoptosis
CC(=O)Oc1cc2c(c(C)c1C)OC(C)(CC/C=C(\C)CC/C=C(\C)CCC=C(C)C)CC2 (stereo not drawn) [γT3 acetate, γ-tocotrienol acetate] | – | – | – | – | suppresses tyrosinase protein expression | –
CC(C)=CCCC(C)=CCCC(C)=CCCC1(C)CCc2cc(OC(=O)CCC(=O)O)c(C)c(C)c2O1 (stereo not drawn) [γT3 succinate, γ-tocotrienol succinate] | – | – | – | – | – | tyrosinase protein expression (tyrosinase [4]; up to 60 μM): does not suppress tyrosinase protein expression
CC(=O)Oc1cc(C)c2c(c1)CCC(C)(CCC=C(C)CCC=C(C)CCC=C(C)C)O2 (stereo not drawn) [δT3 acetate, δ-tocotrienol acetate] | – | – | – | – | suppresses tyrosinase protein expression | –
alpha arbutin [reference compound] | inhibit B16 melanoma cell viability at high concentrations | induced critical apoptotic molecules in a dose-dependent manner | – | comparable pigmentation level to controls | – | concentration at which suppression of tyrosinase is observed (tyrosinase [4]): 1 mM; tyrosinase protein expression (tyrosinase [4]; up to 60 μM): does not suppress tyrosinase protein expression; cell pellet pigmentation (B16 melanoma cells [3]; 1 mM): lighter cell pigmentation
